The results in this text go back to US20230233519A1, “COMBINATION THERAPIES” (MEI Pharma, Inc., priority 2020, published 2023).

The subject of experiment [1] is MV4-11 childhood AML cells. The experiment in a line: Viable cells (annexin V negative and PI negative) by flow cytometry, MV4-11. The note with it: MV4-11, 24 hr, clinically achievable concentrations. The experiment is classed as cell-based, human. As to the method: (§1) FIG. 2B depicts the percentage of viable MV4-11 childhood AML cells following treatment of MV4-11 childhood AML cell lines with venetoclax (VEN) and d-cis-3-(4-hydroxyphenyl)-4-(4-hydroxyphenyl)-8-methylchroman-7-ol (Compound A), alone or in combination, for 24 h. and then subjected to Annexin V-FITC/PI staining and flow cytometry analysis. Viable cells (annexin V negative and PI negative) were gated. Viable cell counts from no drug treatment controls were set at 100%, and the rest of the samples were normalized to the no drug treatment controls. The data were presented as mean percent of viable cells from triplicates with standard errors. […]
(§2) Human adult AML cell lines (MOLM-13), human childhood AML cell lines (MV4-11 and THP-1), and cytarabine-resistant (araC-R) acute monocytic leukemia (AMoL) cell lines (U937) are treated with venetoclax and d-cis-3-(4-hydroxyphenyl)-4-(4-hydroxyphenyl)-8-methylchroman-7-ol (Compound A), alone or in combination, and are subject to flow cytometry analysis using Annexin V-fluorescein isothiocyanate (FITC)/propidium iodide (PI) Apoptosis Kit (Beckman Coulter, Brea, Calif.). Results are expressed as percent Annexin V-positive (Annexin V+) cells. […] The extent and direction of the antileukemic interaction between venetoclax and Compound A is determined by calculating the combination index (CI). […]
Background: In flow cytometry, cells or beads pass a laser one at a time.

In experiment [2] the test system is MOLM-13 AML cells. The experiment in a line: Annexin V-FITC/PI apoptosis flow cytometry, MOLM-13. The note with it: MOLM-13, 24 h, clinically achievable concentrations. The experiment is classed as cell-based, human. As for the experimental part:
(§3) AML cell lines used as described herein include MOLM-13, MV4-11, and THP-1. MOLM-13 cells are purchased from AddexBio (San Diego, Calif., USA). MV4-11 and THP-1 cell lines are purchased from the American Type Culture Collection (Manassas, Va., USA). The cell lines are cultured in RPMI 1640 with 10-20% fetal bovine serum (Thermo Fisher Scientific, Waltham, Mass., USA), 2 mM L-glutamine, 100 U/mL penicillin, and 100 μg/mL streptomycin. All cells are cultured in a 37° C. humidified atmosphere containing 5% CO2/95% air. The cell lines are authenticated at the Genomics Core at Karmanos Cancer Institute using the Power-Plex 16 System from Promega (Madison, Wis., USA). […]
as §2

Experiment [3] deals with MOLM-13 AML cells. The experiment in a line: Viable cells (annexin V negative and PI negative) by flow cytometry, MOLM-13. Format: cell-based, human. The note with it: MOLM-13, 24 hr, clinically achievable concentrations. As to the method: FIG. 2A depicts the percentage of viable MOLM-13 AML cells following treatment of MOLM-13 AML cell lines with venetoclax (VEN) and d-cis-3-(4-hydroxyphenyl)-4-(4-hydroxyphenyl)-8-methylchroman-7-ol (Compound A), alone or in combination, for 24 h and then subjected to Annexin V-FITC/PI staining and flow cytometry analysis. Viable cells (annexin V negative and PI negative) were gated. Viable cell counts from no drug treatment controls were set at 100%, and the rest of the samples were normalized to the no drug treatment controls. The data were presented as mean percent of viable cells from triplicates with standard errors.
AML cell lines used as described herein include MOLM-13, MV4-11, and THP-1. […]
as §2

The test system of experiment [4] is THP-1 childhood AML cells. Description: Annexin V-FITC/PI apoptosis flow cytometry, THP-1. The experiment is classed as cell-based, human. The note with it: THP-1, 24 h, clinically achievable concentrations. As for the experimental part:
as §3, §2

Experiment [5] has as its system cytarabine resistant (araC-R) U937 acute monocytic leukemia (AMoL) cells. The experiment in a line: Annexin V-FITC/PI apoptosis flow cytometry, araC-R U937. Format: cell-based. Particulars: araC-R U937, 24 h, clinically achievable concentrations. As to the method: Human adult AML cell lines (MOLM-13), human childhood AML cell lines (MV4-11 and THP-1), and cytarabine-resistant (araC-R) acute monocytic leukemia (AMoL) cell lines (U937) are treated with venetoclax and d-cis-3-(4-hydroxyphenyl)-4-(4-hydroxyphenyl)-8-methylchroman-7-ol (Compound A), alone or in combination, and are subject to flow cytometry analysis using Annexin V-fluorescein isothiocyanate (FITC)/propidium iodide (PI) Apoptosis Kit (Beckman Coulter, Brea, Calif.). Results are expressed as percent Annexin V-positive (Annexin V+) cells. For the AML/AMoL cell lines, experiments are performed three independent times in triplicate, and the data presented are from one representative experiment. The extent and direction of the antileukemic interaction between venetoclax and Compound A is determined by calculating the combination index (CI). CI<1 indicates synergistic effects, CI=1 indicates additive effects, and CI>1 indicates antagonistic effects. ***indicates p<0.001 compared to control.

The test system of experiment [6] is MV4-11 childhood AML cells. Description: Annexin V-FITC/PI apoptosis flow cytometry, MV4-11. The experiment is classed as cell-based, human. Particulars: MV4-11, 24 h, clinically achievable concentrations. As for the experimental part: as §3, §2
The test system of experiment [7] is THP-1 childhood AML cells. The experiment in a line: Viable cells (annexin V negative and PI negative) by flow cytometry, THP-1. The experiment is classed as cell-based, human. Particulars: THP-1, 24 hr, clinically achievable concentrations. As to the method:
as §1, with “2C” for “2B”, “THP-1” for “MV4-11”
as §2

Turning to `Cc1c(O)ccc2c1OC[C@@H](c1ccc(O)cc1)[C@H]2c1ccc(O)cc1` [Compound A, d-cis-3-(4-hydroxyphenyl)-4-(4-hydroxyphenyl)-8-methylchroman-7-ol], the “viability (percent of viable cells vs no drug control)” value in experiment [1], in experiment [3] and in experiment [7] was “dose-dependent decrease in viability” in each case. Further, the “apoptosis (Annexin V+ cells)” value in experiment [2], in experiment [4], in experiment [5] and in experiment [6] was “high levels of apoptosis” throughout.
